Assay results: ChEMBL document CHEMBL1201862, “PubChem BioAssay data set” (2004)
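How tested: cells in 96-well plates exposed to compound for 48 hours at five concentrations. GI50 is the concentration that inhibits growth by half.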 Active and inactive are the calls of the source. Cut-off read from the data, not from the text of the source: active = GI50 up to about 1.1 µM and inactive = higher.

Tests used:
Assay in all cases: growth of human tumour cells (NCI), 48 h
SR = tested on: SR
A549 = tested on: A549
EKVX = tested on: EKVX
SK-MEL-2 = tested on: SK-MEL-2
SK-MEL-28 = tested on: SK-MEL-28
CCRF-CEM = tested on: CCRF-CEM
SNB-78 = tested on: SNB-78
KM12 = tested on: KM12
NCI-H23 = tested on: NCI-H23
HL-60 = tested on: HL-60
SF-268 = tested on: SF-268
IGROV-1 = tested on: IGROV-1
HT-29 = tested on: HT-29
SNB-19 = tested on: SNB-19
SNB-75 = tested on: SNB-75
786-0 = tested on: 786-0
M19-MEL = tested on: M19-MEL
OVCAR-3 = tested on: OVCAR-3
K562 = tested on: K562
UO-31 = tested on: UO-31
NCI-H226 = tested on: NCI-H226
MOLT-4 = tested on: MOLT-4
KM-20L2 = tested on: KM-20L2
ACHN = tested on: ACHN
DLD-1 = tested on: DLD-1
SN12C = tested on: SN12C
UACC-257 = tested on: UACC-257
HCT-15 = tested on: HCT-15
SW-620 = tested on: SW-620
A498 = tested on: A498
NCI-H460 = tested on: NCI-H460
SF-295 = tested on: SF-295
CAKI-1 = tested on: CAKI-1
DMS-273 = tested on: DMS-273
RXF 393 = tested on: RXF 393
RXF 631 = tested on: RXF 631
TK-10 = tested on: TK-10
COLO 205 = tested on: COLO 205
RPMI-8226 = tested on: RPMI-8226
DMS-114 = tested on: DMS-114
SF-539 = tested on: SF-539
HCC 2998 = tested on: HCC 2998
HCT-116 = tested on: HCT-116
HOP-62 = tested on: HOP-62
U-251 = tested on: U-251
UACC-62 = tested on: UACC-62
LXFL 529 = tested on: LXFL 529
Malme-3M = tested on: Malme-3M
OVCAR-5 = tested on: OVCAR-5
OVCAR-8 = tested on: OVCAR-8
OVCAR-4 = tested on: OVCAR-4
M14 = tested on: M14
SK-OV-3 = tested on: SK-OV-3
HOP-92 = tested on: HOP-92
NCI-H522 = tested on: NCI-H522
SK-MEL-5 = tested on: SK-MEL-5
XF498 = tested on: XF498
LOX IMVI = tested on: LOX IMVI

SMILES: O=C1NC2(CCCCC2)C2CCCCC(O)C12 (stereo not given)
- GI50 (SR): > 100 µM (inactive)
- GI50 (A549): > 100 µM (inactive)
- GI50 (EKVX): > 100 µM (inactive)
- GI50 (SK-MEL-2): > 100 µM (inactive)
- GI50 (SK-MEL-28): > 100 µM (inactive)
- GI50 (CCRF-CEM): > 100 µM (inactive)
- GI50 (SNB-78): > 100 µM (inactive)
- GI50 (KM12): > 100 µM (inactive)
- GI50 (NCI-H23): > 100 µM (inactive)
- GI50 (HL-60): > 100 µM (inactive)
- GI50 (SF-268): > 100 µM (inactive)
- GI50 (IGROV-1): > 100 µM (inactive)
- GI50 (HT-29): > 100 µM (inactive)
- GI50 (SNB-19): > 100 µM (inactive)
- GI50 (SNB-75): 57.1 µM (inactive)
- GI50 (786-0): > 100 µM (inactive)
- GI50 (M19-MEL): > 100 µM (inactive)
- GI50 (OVCAR-3): > 100 µM (inactive)
- GI50 (K562): > 100 µM (inactive)
- GI50 (UO-31): > 100 µM (inactive)
- GI50 (NCI-H226): > 100 µM (inactive)
- GI50 (MOLT-4): > 100 µM (inactive)
- GI50 (KM-20L2): > 100 µM (inactive)
- GI50 (ACHN): > 100 µM (inactive)
- GI50 (DLD-1): > 100 µM (inactive)
- GI50 (SN12C): > 100 µM (inactive)
- GI50 (UACC-257): > 100 µM (inactive)
- GI50 (HCT-15): > 100 µM
- GI50 (SW-620): > 100 µM (inactive)
- GI50 (A498): > 100 µM (inactive)
- GI50 (NCI-H460): > 100 µM (inactive)
- GI50 (SF-295): > 100 µM (inactive)
- GI50 (CAKI-1): > 100 µM (inactive)
- GI50 (DMS-273): > 100 µM (inactive)
- GI50 (RXF 393): > 100 µM (inactive)
- GI50 (RXF 631): > 100 µM (inactive)
- GI50 (TK-10): > 100 µM (inactive)
- GI50 (COLO 205): > 100 µM (inactive)
- GI50 (RPMI-8226): > 100 µM (inactive)
- GI50 (DMS-114): > 100 µM (inactive)
- GI50 (SF-539): > 100 µM (inactive)
- GI50 (HCC 2998): > 100 µM (inactive)
- GI50 (HCT-116): > 100 µM (inactive)
- GI50 (HOP-62): > 100 µM (inactive)
- GI50 (U-251): > 100 µM (inactive)
- GI50 (UACC-62): > 100 µM (inactive)
- GI50 (LXFL 529): > 100 µM (inactive)
- GI50 (Malme-3M): > 100 µM (inactive)
- GI50 (OVCAR-5): > 100 µM (inactive)
- GI50 (OVCAR-8): > 100 µM (inactive)

SMILES: CCOC(=O)c1oc2c(OC)ccc3c2c1CCC3
- GI50 (OVCAR-4): > 100 µM (inactive)
- GI50 (SR): > 100 µM (inactive)
- GI50 (A549): > 100 µM (inactive)
- GI50 (M14): > 100 µM (inactive)
- GI50 (EKVX): > 100 µM (inactive)
- GI50 (SK-MEL-2): > 100 µM (inactive)
- GI50 (SK-MEL-28): > 100 µM (inactive)
- GI50 (SK-OV-3): > 100 µM (inactive)
- GI50 (CCRF-CEM): 73.3 µM (inactive)
- GI50 (SNB-78): > 100 µM (inactive)
- GI50 (KM12): > 100 µM (inactive)
- GI50 (NCI-H23): 96.4 µM (inactive)
- GI50 (HL-60): > 100 µM (inactive)
- GI50 (SF-268): > 100 µM (inactive)
- GI50 (HOP-92): 86.9 µM (inactive)
- GI50 (IGROV-1): > 100 µM (inactive)
- GI50 (HT-29): 37.7 µM (inactive)
- GI50 (SNB-19): > 100 µM (inactive)
- GI50 (SNB-75): 77.6 µM (inactive)
- GI50 (786-0): > 100 µM (inactive)
- GI50 (NCI-H522): > 100 µM (inactive)
- GI50 (M19-MEL): > 100 µM (inactive)
- GI50 (OVCAR-3): > 100 µM (inactive)
- GI50 (K562): 66.8 µM (inactive)
- GI50 (UO-31): 33.6 µM (inactive)
- GI50 (MOLT-4): 37.1 µM (inactive)
- GI50 (KM-20L2): > 100 µM (inactive)
- GI50 (ACHN): > 100 µM (inactive)
- GI50 (DLD-1): > 100 µM (inactive)
- GI50 (SN12C): > 100 µM (inactive)
- GI50 (UACC-257): 0.404 µM (active)
- GI50 (HCT-15): > 100 µM
- GI50 (SK-MEL-5): > 100 µM (inactive)
- GI50 (SW-620): > 100 µM (inactive)
- GI50 (XF498): > 100 µM (inactive)
- GI50 (A498): > 100 µM (inactive)
- GI50 (NCI-H460): > 100 µM (inactive)
- GI50 (SF-295): > 100 µM (inactive)
- GI50 (DMS-273): > 100 µM (inactive)
- GI50 (LOX IMVI): > 100 µM (inactive)
- GI50 (RXF 393): > 100 µM (inactive)
- GI50 (RXF 631): > 100 µM (inactive)
- GI50 (TK-10): > 100 µM (inactive)
- GI50 (COLO 205): > 100 µM (inactive)
- GI50 (RPMI-8226): > 100 µM (inactive)
- GI50 (DMS-114): > 100 µM (inactive)
- GI50 (SF-539): > 100 µM (inactive)
- GI50 (HCC 2998): > 100 µM (inactive)
- GI50 (HOP-62): > 100 µM (inactive)
- GI50 (U-251): > 100 µM (inactive)
- GI50 (UACC-62): > 100 µM (inactive)
- GI50 (LXFL 529): > 100 µM (inactive)
- GI50 (Malme-3M): > 100 µM (inactive)
- GI50 (OVCAR-5): > 100 µM (inactive)
- GI50 (OVCAR-8): > 100 µM (inactive)
